Our source for the inhibition values is ChEMBL document CHEMBL4513101, “Naegleria gruberi Pathogen Box compounds screening” (2021).

Calls of active or inactive are those of the source. Rule as the data show it: active = inhibition of 80% or more and inactive = less.

This experiment relates to Naegleria gruberi. Kind of experiment: microbe, parasite or virus in culture. It is filed as functional. Particulars: NEG-M, CONC 10 uM.
Description: Growth inhibiting activity of Naegleria gruberi in vitro
By inhibition is commonly meant the change of the read-out against control, counted positive when it falls. On to `Clc1cccc(CO[C@H]2CCc3ccccc3[C@@H]2n2ccnn2)c1`, for which the inhibition at 10 µM is reported as 12.6% (not active). With `NCCC(O)C(=O)N[C@@H]1C[C@H](N)[C@@H](OC2O[C@H](CN)[C@@H](O)[C@H](O)[C@H]2O)[C@H](O)C1OC1O[C@H](CO)[C@@H](O)[C@H](N)[C@H]1O` (stereo partly specified) the figure was 0% (not active); with `COc1cc(C2=NCCN2)cc2cc(-c3ccc(C4=NCCN4)cc3)oc12`, 11.2% (not active); with `C[C@H](C(N)=O)N1CCCC[C@H]1c1ccc(OCc2cccc(F)c2)cc1`, 15.8% (not active). Consider `CC(C)C(C(=O)Nc1ccc(S(=O)(=O)N(C)C)cc1)c1ccc(Cl)cc1` (stereo unspecified), for which the inhibition at 10 µM is given as 41% (not active). Regarding `COc1ccc(Nc2ccccc2NC(=O)c2ccc(O)nc2)cc1`, the inhibition at 10 µM is recorded as 24.1% (not active). For `Cc1ccc2[nH]c(C3CCCNC3)c(-c3ccncc3)c2c1` (stereo unspecified) the value was 9.5% (not active); for `Cc1cc(C)c2cc(C(=O)NC3CCCCCCC3)[nH]c2c1`, 30.2% (not active). Consider `Cc1ccc2c(c1C)NC(=O)C21NN=C(c2ccccc2)S1` (stereo unspecified), for which the inhibition at 10 µM was 20.7% (not active). For `COc1cccc(-c2cc3c(Nc4cccnc4)nccc3[nH]2)c1` the value was 10% (not active); for `CC(=O)NCC1CN(c2ccc(-c3ccc(CNCc4cn[nH]n4)cc3)c(F)c2)C(=O)O1` (stereo unspecified), 26.2% (not active); for `CC[C@H](CO)NCCN[C@H](CC)CO`, 26.7% (not active).

In the case of `c1coc(CNc2nc(N3CCCCC3)nc3ccccc23)c1`, the inhibition at 10 µM is recorded as 56.5% (not active). With `CC(C)(C)OC(=O)N1CCC(Cn2nc(-c3cnc4ccccc4c3)c3c(N)ncnc32)CC1` the figure was 57.8% (not active); with `COC(=O)C1=C(C)NC(C)=C(C(=O)OC(C)C)C1c1cccc2nonc12` (stereo unspecified) [ISRADIPINE], 48.7% (not active); with `CS(=O)(=O)c1cccc(-c2cnc3[nH]cc(-c4ccc(CCC(=O)O)cc4)c3c2)c1`, 28.7% (not active). For `CC(C)n1ncc2c(C(=O)NCC(c3cccs3)N3CCOCC3)cc(-c3ccccc3)nc21` (stereo unspecified) the value was 48.6% (not active); for `N=C(N)c1ccc(OCCCCCOc2ccc(C(=N)N)cc2)cc1` [PENTAMIDINE], 43% (not active); for `O=C(Cn1ccnc1[N+](=O)[O-])NCc1ccccc1` [BENZNIDAZOLE], 37.4% (not active).

Take `O=C(OCc1ccccc1)N1CCC(c2cc(-c3ccncc3)c(-c3ccc(F)cc3)[nH]2)CC1`: the inhibition at 10 µM is listed as 42.4% (not active). On to `COc1cc(CN2CCC3(C=Cc4ccccc43)CC2)cc2c1OCO2`, for which the inhibition at 10 µM is reported as 38.6% (not active). For `Cc1cccc(NC(=O)c2cc(S(=O)(=O)N(C)c3ccc(F)cc3)ccc2Cl)n1` the value was 42.3% (not active). For the compound `O=C(N[C@H](Cc1ccccc1)C(=O)Nc1ccccc1N1CCOCC1)c1cccs1`, the inhibition at 10 µM is 29.6% (not active). For `Cc1cc(NC(=O)c2ccc(S(=O)(=O)N(Cc3ccccc3)C(C)C)cc2)no1` the value was 0% (not active); for `Clc1cccc(C(c2ccc(CN3CCNCC3)cc2)n2ccnc2)c1` (stereo unspecified), 20.3% (not active); for `CCOc1ccc2cc(-c3nn(C(C)(C)C)c(N)c3C(N)=O)cnc2c1`, 92.5% (active). With `Nc1ncc(-c2ccc(C(F)(F)F)nc2)cc1-c1ccc(C(F)(F)F)nc1` the figure was 16.5% (not active); with `CCCCOC(=O)Nc1cc2nc(C3CCCCC3)[nH]c2cc1N1CCCC1`, 64.3% (not active). Turning to `Nc1nc2cc(-c3cncc(Oc4ccc(F)cc4)c3)ccc2[nH]1`, the inhibition at 10 µM is 35.5% (not active). With `Cc1cc(OCC(=O)NCc2ccccc2)c2cc(Br)ccc2n1`, the inhibition at 10 µM is 22.1% (not active).

Take `CC(=O)NC[C@@H]1CN(c2ccc(N3CCOCC3)c(F)c2)C(=O)O1`: the inhibition at 10 µM was 20.1% (not active).
